Consider 16 compounds from patent US8822446B2, “Pyrrolopyridine inhibitors of kinases” (AbbVie Inc., priority 2010, dated 2014).

The assay deals with T1, Cdc7 (BEV coexpressed huCDC7/DBF4) (Homo sapiens, UniProt O00311).
T1 construct: made in house; host or cells: baculovirus expression vector (BEV) co-expression
T1 sequence (O00311 whole entry): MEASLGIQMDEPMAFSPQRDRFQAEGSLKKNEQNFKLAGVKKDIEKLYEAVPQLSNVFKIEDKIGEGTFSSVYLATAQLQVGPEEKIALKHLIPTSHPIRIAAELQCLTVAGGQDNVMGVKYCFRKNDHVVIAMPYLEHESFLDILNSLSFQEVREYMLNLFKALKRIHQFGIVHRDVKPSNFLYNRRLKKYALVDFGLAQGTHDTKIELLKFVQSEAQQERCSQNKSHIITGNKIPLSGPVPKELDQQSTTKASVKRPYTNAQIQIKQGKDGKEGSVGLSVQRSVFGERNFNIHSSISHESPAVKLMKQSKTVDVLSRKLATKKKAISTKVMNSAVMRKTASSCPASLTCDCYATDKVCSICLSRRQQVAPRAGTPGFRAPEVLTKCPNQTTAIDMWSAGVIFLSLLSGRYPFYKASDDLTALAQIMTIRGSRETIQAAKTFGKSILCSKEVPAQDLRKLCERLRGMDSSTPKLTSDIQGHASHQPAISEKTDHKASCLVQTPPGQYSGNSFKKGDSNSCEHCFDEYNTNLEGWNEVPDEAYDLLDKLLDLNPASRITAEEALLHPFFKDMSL
T1 sequence (Q9UBU7 whole entry partner): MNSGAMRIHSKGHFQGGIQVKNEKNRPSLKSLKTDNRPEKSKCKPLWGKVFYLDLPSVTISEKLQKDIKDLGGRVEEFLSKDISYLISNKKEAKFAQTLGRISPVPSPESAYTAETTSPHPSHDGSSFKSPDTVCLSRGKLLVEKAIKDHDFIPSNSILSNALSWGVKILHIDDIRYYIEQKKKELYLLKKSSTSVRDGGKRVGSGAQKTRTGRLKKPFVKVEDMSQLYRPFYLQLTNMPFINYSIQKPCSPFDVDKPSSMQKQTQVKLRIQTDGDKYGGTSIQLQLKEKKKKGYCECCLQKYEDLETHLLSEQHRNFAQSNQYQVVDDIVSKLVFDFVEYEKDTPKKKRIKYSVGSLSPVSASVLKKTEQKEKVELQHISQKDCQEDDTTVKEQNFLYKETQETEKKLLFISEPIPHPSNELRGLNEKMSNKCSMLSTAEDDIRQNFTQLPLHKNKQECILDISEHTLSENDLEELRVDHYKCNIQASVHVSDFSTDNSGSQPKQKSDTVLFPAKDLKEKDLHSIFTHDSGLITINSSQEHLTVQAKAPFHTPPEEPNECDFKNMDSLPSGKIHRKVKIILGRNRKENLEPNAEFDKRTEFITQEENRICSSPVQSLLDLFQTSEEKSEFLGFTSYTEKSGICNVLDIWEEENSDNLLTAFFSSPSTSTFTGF
In words: Cdc7 enzyme inhibition assay ([33P]-ATP, biotinylated peptide substrate, FlashPlate). Type of assay: biochemical. To be noted: Ki generated from IC50 assuming ATP-competitive inhibition; 1 μM ATP, apparent ATP Km 0.7 μM; 1 hr reaction. The protocol:
This example describes the assays that may be used to identify compounds having kinase activity.
Cdc7 (BEV coexpressed huCDC7/DBF4) is prepared internally. Cdc7 assays are conducted as follows with final concentrations as listed. In 384-well v-bottom polypropylene plates, 6 μL compound (2% DMSO), is mixed with 6 μL of Cdc7 (2 ug/mL), and Jerini peptide substrate A-A11 (biotin-C6linker-[…]) (2 μM), followed by immediate initiation with 6 μL […] (1 μM, 20 mCi/μmol) using a reaction buffer comprising 25 mM HEPES, pH 7.5, 1 mM DTT, 10 mM MgCl2, 100 μM, Na3VO4, 0.075 mg/ml Triton X-100. Reactions are quenched after 1 hr by the addition of 90 μL stop buffer (50 mM EDTA, 2M NaCl).
Table 1 depicts enzyme inhibition data (Ki) for exemplary compounds.
As for `O=c1cc(-c2c[nH]c3ncccc23)cc(N[C@H]2CC[C@H](NS(=O)(=O)C3CC3)CC2)[nH]1` [Example 57, N-(trans-4-{[6-oxo-4-(1H-pyrrolo[2,3-b]pyridin-3-yl)-1,6-dihydropyridin-2-yl]amino}cyclohexyl)cyclopropanesulfonamide], the Ki is under 0.01 µM. `O=c1cc(-c2c[nH]c3ncccc23)nc(-c2ccccc2)[nH]1` [Example 32, 2-phenyl-6-(1H-pyrrolo[2,3-b]pyridin-3-yl)pyrimidin-4(3H)-one]: the Ki was under 0.01 µM.

Consider `O=c1cc(-c2c[nH]c3ncccc23)nc(NCc2ccccc2)[nH]1` [Example 2, 2-(benzylamino)-6-(1H-pyrrolo[2,3-b]pyridin-3-yl)pyrimidin-4(3H)-one], for which the Ki was under 0.01 µM. Take `C[C@@H](Nc1nc(-c2c[nH]c3ncccc23)cc(=O)[nH]1)c1ccccc1` [Example 12, 2-{[(1R)-1-phenylethyl]amino}-6-(1H-pyrrolo[2,3-b]pyridin-3-yl)pyrimidin-4(3H)-one]: the Ki was under 0.01 µM.

In the case of `Cc1ncccc1-c1cc(-c2c[nH]c3ncccc23)cc(=O)[nH]1` [Example 53, 2′-methyl-4-(1H-pyrrolo[2,3-b]pyridin-3-yl)-2,3′-bipyridin-6(1H)-one], the Ki was under 0.01 µM. `O=c1cc(-c2c[nH]c3ncccc23)nc(N2CCC(O)CC2)[nH]1` [Example 7, 2-(4-hydroxypiperidin-1-yl)-6-(1H-pyrrolo[2,3-b]pyridin-3-yl)pyrimidin-4(3H)-one]: the Ki was under 0.01 µM. The value for `CN(c1nc(-c2c[nH]c3ncccc23)cc(=O)[nH]1)C1CCCCC1` [Example 11, 2-[cyclohexyl(methyl)amino]-6-(1H-pyrrolo[2,3-b]pyridin-3-yl)pyrimidin-4(3H)-one] was under 0.01 µM; that for `O=c1cc(-c2c[nH]c3ncccc23)nc(N2CCC(CO)CC2)[nH]1` [Example 21, 2-[4-(hydroxymethyl)piperidin-1-yl]-6-(1H-pyrrolo[2,3-b]pyridin-3-yl)pyrimidin-4(3H)-one] was under 0.01 µM; that for `COc1ccc(C(F)(F)F)cc1-c1cc(-c2c[nH]c3ncccc23)cc(=O)[nH]1` [Example 46, 6-[2-methoxy-5-(trifluoromethyl)phenyl]-4-(1H-pyrrolo[2,3-b]pyridin-3-yl)pyridin-2(1H)-one] was under 0.01 µM. The value for `COc1nccc(-c2cc(-c3c[nH]c4ncccc34)cc(=O)[nH]2)c1Cl` [Example 49, 3′-chloro-2′-methoxy-4-(1H-pyrrolo[2,3-b]pyridin-3-yl)-2,4′-bipyridin-6(1H)-one] was under 0.01 µM; that for `O=c1cc(-c2c[nH]c3ncccc23)nc(NC2CCCC2)[nH]1` [Example 26, 2-(cyclopentylamino)-6-(1H-pyrrolo[2,3-b]pyridin-3-yl)pyrimidin-4(3H)-one] was under 0.01 µM.

As for `Cc1cccc(-c2nc(-c3c[nH]c4ncccc34)cc(=O)[nH]2)c1` [Example 61, 2-(3-methylphenyl)-6-(1H-pyrrolo[2,3-b]pyridin-3-yl)pyrimidin-4(3H)-one], the Ki was under 0.01 µM. For `O=c1cc(-c2c[nH]c3ncccc23)nc(N2CCSCC2)[nH]1` [Example 15, 6-(1H-pyrrolo[2,3-b]pyridin-3-yl)-2-(thiomorpholin-4-yl)pyrimidin-4(3H)-one] the value was under 0.01 µM. For `NC1CCCCC1Nc1nc(-c2c[nH]c3ncccc23)cc(=O)[nH]1` (stereo not shown) [Example 13, 2-[(2-aminocyclohexyl)amino]-6-(1H-pyrrolo[2,3-b]pyridin-3-yl)pyrimidin-4(3H)-one] the value was under 0.01 µM; for `COc1cccc(Nc2cc(-c3c[nH]c4ncccc34)cc(=O)[nH]2)c1` [Example 54, 6-[(3-methoxyphenyl)amino]-4-(1H-pyrrolo[2,3-b]pyridin-3-yl)pyridin-2(1H)-one], under 0.01 µM. With `O=c1cc(-c2c[nH]c3ncccc23)nc(NC2CCCCCC2)[nH]1` [Example 14, 2-(cycloheptylamino)-6-(1H-pyrrolo[2,3-b]pyridin-3-yl)pyrimidin-4(3H)-one], the Ki is under 0.01 µM.
